Laboratory results as given in US20120149710A1, “SORTASE A INHIBITORS” (priority 2009, published 2012).
≈ marks a conversion by molar mass, not a printed value. Entries after “also recorded” stand apart in the source; their conditions may differ.

Experiments:
[1] = molecular target: B. anthracis sortase A enzyme (Bacillus anthracis, UniProt P0DPQ5); experiment: cell-based; details: for EC50 (estimated from a single concentration): read-out: EC50 estimated from a single concentration
[2] = molecular target: S. aureus SrtA (Staphylococcus aureus, UniProt Q2FV99); experiment: FRET assay of SrtA-catalyzed hydrolysis of Abz-LPETG-Dap(Dnp); IC50 / Ki app; assay type: biochemical; details: for Ki: read-out: Ki app (apparent dissociation constant of enzyme-inhibitor complex, Morrison's equation), S. aureus SrtA; for IC50: purified enzyme, FRET, read-out: IC50 for inhibition of S. aureus SrtA
Chain of S. aureus SrtA (Q2FV99 60-206): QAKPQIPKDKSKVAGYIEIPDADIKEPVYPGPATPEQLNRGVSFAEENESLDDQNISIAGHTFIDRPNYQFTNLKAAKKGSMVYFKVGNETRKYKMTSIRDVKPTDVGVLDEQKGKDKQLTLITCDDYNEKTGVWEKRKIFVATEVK

[3] = test system: SrtA activity in whole cells, S. aureus strain RN4220; experiment: Cell adhesion assay: whole cell adhesion to IgG coated plates (SrtA activity in whole cells); assay type: cell-based, Staphylococcus aureus; details: IgG coated microtiter plates
[4] = molecular target: Bacillus anthracis sortase enzyme (BaSrtA) (Bacillus anthracis, UniProt P0DPQ5); experiment: biochemical
Chain of Bacillus anthracis sortase enzyme (BaSrtA) (P0DPQ5 whole entry, looked up): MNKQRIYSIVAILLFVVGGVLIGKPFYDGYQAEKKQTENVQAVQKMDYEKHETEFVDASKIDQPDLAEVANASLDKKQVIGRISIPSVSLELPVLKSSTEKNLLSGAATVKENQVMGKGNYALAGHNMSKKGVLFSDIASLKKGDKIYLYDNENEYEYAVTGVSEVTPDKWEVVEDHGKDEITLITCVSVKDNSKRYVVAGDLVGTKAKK

[5] = test system: S. aureus; experiment: S. aureus culture growth in the presence of 500 μM inhibitor; assay type: cell-based, Staphylococcus aureus; details: vs 2.5% DMSO control
[6] = molecular target: SrtA (Staphylococcus aureus, UniProt Q2FV99); assay type: biochemical; details: inhibitor 10-fold above IC50, then rapid dilution
Chain of SrtA (Q2FV99 60-206): as the sequence (Q2FV99 60-206) above

[7] = test system: S. aureus strain Newman; experiment: MIC by microtiter broth dilution method; assay type: cell-based; details: Staphylococcus aureus, read-out: MIC preventing S. aureus growth

Chain of B. anthracis sortase A enzyme (P0DPQ5 whole entry, looked up): as the sequence (P0DPQ5 whole entry, looked up) above

Row | Structure (SMILES) | EC50 (estimated from a single concentration) [1] [nM] | Ki [2] [nM] | IC50 [2] [nM] | Ki [4] [nM] | Effect on S. aureus growth in cell culture, in words [5] | further results
1 | CCOc1c(SSc2ccccn2)cnn(-c2ccccc2)c1=O [compound 2-50, 4-Ethoxy-5-(2-pyridyldithio)-2-phenylpyridazin-3-one] | > 8000 | ~30 | – | – | – | Concentration giving near complete inhibition of sortase activity [1]: about 34 μM; EC50 [1]: ~15000 nM
2 | Cc1oc(CN)nc1C(=O)c1nccs1 [compound 4] | – | – | 7200 | – | – | Effect on SrtA-dependent adherence / protein display in whole cells [3]: potent effects; also recorded: inhibits protein display by SrtA in vivo
3 | CCOc1c(SSc2ccccn2)cnn(-c2cccc(F)c2)c1=O [2-59, 4-Ethoxy-2-(3-fluorophenyl)-5-(pyridin-2-yldisulfanyl)pyridazin-3(2H)-one] | > 8000 | – | – | – | – | –
4 | CCSc1c(S)cnn(-c2ccccc2)c1=O [compound 2-9] | – | 1400 | 1400 | ~300 | do not significantly inhibit S. aureus growth; also recorded: not bactericidal; also recorded: do not impair microbial growth in cell culture | Inhibition of S. aureus SrtA, potency in words [2]: low micromolar
5 | CC1=NN(c2ccccc2)C(=S)/C1=C/Nc1c(Br)cc(Br)cc1Br [compound 3-12] | > 28000 | 300 | 300 | 1700 | do not substantially affect bacterial growth; also recorded: do not impair microbial growth in cell culture | Improvement of potency relative to lead 3 ([2]; 4-NO2 changed to 2,4,6-Br3): about 15 fold
6 | Cc1ccc(N2C(=O)/C(=C/c3cc([N+](=O)[O-])cc(Br)c3O)SC2=S)c(C)c1 [compound 1] | – | – | – | – | toxic | Enzyme activity recovered immediately after dilution [6]: 84%; MIC [7]: ~10 µM (≈ 4.65 µg/mL)
